One experiment addresses T1, Dmel\Or35a + Dmel\Orco (Drosophila melanogaster, UniProt Q9VNB5).
T1 construct: expressed in transfected cells; host or cells: Xenopus laevis oocytes
T1 sequence (Q9VNB5 1-486): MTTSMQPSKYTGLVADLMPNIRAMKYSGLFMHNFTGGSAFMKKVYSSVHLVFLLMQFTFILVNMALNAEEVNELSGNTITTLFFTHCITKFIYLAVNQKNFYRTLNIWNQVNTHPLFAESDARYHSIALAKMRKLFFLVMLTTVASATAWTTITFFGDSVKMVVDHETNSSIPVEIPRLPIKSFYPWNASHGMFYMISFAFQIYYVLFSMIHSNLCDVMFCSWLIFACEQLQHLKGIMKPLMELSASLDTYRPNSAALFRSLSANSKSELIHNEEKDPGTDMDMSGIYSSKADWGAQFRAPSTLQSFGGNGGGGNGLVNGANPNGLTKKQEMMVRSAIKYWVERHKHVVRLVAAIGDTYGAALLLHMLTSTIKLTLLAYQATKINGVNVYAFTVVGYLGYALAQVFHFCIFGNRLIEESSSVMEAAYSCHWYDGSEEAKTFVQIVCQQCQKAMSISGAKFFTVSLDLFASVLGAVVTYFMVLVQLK
T1 sequence (Q9V3Q2 1-409 partner): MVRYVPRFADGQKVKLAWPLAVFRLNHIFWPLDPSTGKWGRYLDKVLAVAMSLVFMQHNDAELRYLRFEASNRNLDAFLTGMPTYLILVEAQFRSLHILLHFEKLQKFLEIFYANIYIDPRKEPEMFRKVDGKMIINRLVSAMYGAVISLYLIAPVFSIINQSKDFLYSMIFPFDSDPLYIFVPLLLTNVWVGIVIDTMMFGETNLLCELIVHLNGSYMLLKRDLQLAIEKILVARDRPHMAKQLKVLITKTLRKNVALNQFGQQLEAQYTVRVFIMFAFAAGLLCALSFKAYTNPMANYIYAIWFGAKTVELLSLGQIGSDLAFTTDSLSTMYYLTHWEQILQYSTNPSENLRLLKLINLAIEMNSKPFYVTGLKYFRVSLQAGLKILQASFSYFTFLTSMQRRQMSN
In words: Inhibition of heteromeric OR in oocytes (hexanol or OLC12 activation). It is filed as cell-based. Conditions: for inhibition of odorant activation: 100 µM antagonist, 1 µM hexanol; for antagonism of OLC12 (Orco agonist) activation of heteromeric OR: 100 or 300 µM antagonist, 10 µM OLC12. How it is done: (§1) An automated parallel electrophysiology system (OpusExpress 6000 A, Molecular Devices) was used to record Orco agonist (OLC12) or odorant induced currents under two-electrode voltage clamp. Oocytes were perfused with ND96 (in mM: 96 NaCl, 2 KCl, 1 CaCl2, 1 MgCl2, 5 HEPES, pH 7.4). DMSO was used to prepare 1 M or 100 mM stock solutions of test compounds, which were then diluted in ND96 on the day of the experiment. Compounds were applied at a flow rate of 1.0 mL/min, with extensive washing in ND96 at 4.6 mL/min between applications. Micropipettes with resistances of 0.2–2.0 MΩ were filled with 3 M KCl. The holding potential was −70 mV. Current responses were filtered (4-pole, Bessel, low pass) at 20 Hz (−3 db) and sampled at 100 Hz. OpusXpress 1.1 software (Molecular Devices) was used to capture and store current responses.
(§2) To measure the ability of Orco antagonists to inhibit odorant activation, oocytes expressing heteromeric ORs (Orco + ORX) were exposed to a 30 sec application of odorant followed by a 20 min wash. Oocytes were then exposed to a 90 sec application of Orco antagonist, immediately followed by a 30 sec co-application of Orco antagonist and odorant. The current response to odorant in the presence of Orco antagonist was compared to the preceding response to odorant alone and represented as a percentage. This value was then normalized to the value obtained when the assay was run in the absence of antagonist (sham).
(§3) Figure S3. Effects of Orco antagonists on heteromeric ORs. […]
heteromeric complexes of odorant specificity subunits and Orco. The Orco antagonists tested were 3-isopropyl-6-methyl-catechol (3 I6 MC), a potent compound from the input training set, and two compounds id e ntified in Fig u re 4 an d Ta b le 1 : 2-tert-butyl-6-methylphenol (B MP ) and linalyl formate (LF) . These compounds were tested for antagonist activity against odorant activation of three ORs from Anopheles gambiae (Agam\Or28 + Agam\Orco, Agam\Or39 + A ga m\Orco, Agam\Or65 + A ga m\Orco), o ne O R fro m Culex quinquefasciatus, the southern house mosquito (Cq u i\Or21 + Cqui\Orco) an d on e O R f ro m Drosophila melanogaster (Dme l\Or35a + Dmel\Orco). Each OR was activated by its cognate odorant agonist applied at an approximate EC50 concentration. […]
SEM (n = 4). […] Statistical significance of the data in each panel was assessed by one-way analysis of variance followed by Dunnett’s multiple comparison test using the pre-normalized values for each antagonist compared to the values obtained in the sham recordings (*, p < 0 .0 5; **, p < 0. 01; ***, p < 0 . 00 1 ).

In a further experiment the target is T2, Agam\Or39 + Agam\Orco (Anopheles gambiae, UniProt Q7QCC7).
T2 construct: expressed in transfected cells; host or cells: Xenopus laevis oocytes
T2 sequence (Q7QCC7 1-478): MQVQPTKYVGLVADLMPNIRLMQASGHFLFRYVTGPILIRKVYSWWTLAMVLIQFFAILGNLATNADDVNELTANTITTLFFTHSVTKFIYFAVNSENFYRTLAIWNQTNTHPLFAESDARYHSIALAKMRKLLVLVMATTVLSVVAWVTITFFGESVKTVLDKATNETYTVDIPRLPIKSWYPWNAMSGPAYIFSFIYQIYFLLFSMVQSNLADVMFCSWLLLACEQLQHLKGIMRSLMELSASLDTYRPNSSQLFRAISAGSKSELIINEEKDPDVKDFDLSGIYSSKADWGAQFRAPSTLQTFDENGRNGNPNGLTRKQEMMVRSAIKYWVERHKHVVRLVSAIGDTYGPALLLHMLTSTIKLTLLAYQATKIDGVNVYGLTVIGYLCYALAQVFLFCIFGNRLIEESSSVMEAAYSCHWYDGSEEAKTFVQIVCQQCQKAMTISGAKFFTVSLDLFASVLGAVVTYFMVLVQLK
In words: Inhibition of heteromeric OR in oocytes (6-methyl-5-hepten-2-one activation). The format is cell-based. Particulars: 100 µM antagonist; 10 µM 6-methyl-5-hepten-2-one. How it is done:
as §1, §2, §3
heteromeric complexes of odorant specificity subunits and Orco. The Orco antagonists tested were 3-isopropyl-6-methyl-catechol (3 I6 MC), a potent compound from the input training set, and two compounds id e ntified in Fig u re 4 an d Ta b le 1 : 2-tert-butyl-6-methylphenol (B MP ) and linalyl formate (LF) . […]
Statistical significance of the data in each panel was assessed by one-way analysis of variance followed by Dunnett’s […]

The structures appear in SMILES notation. Where a name gives a salt, the structure may show the parent alone.

As to `Cc1ccc(C(C)C)c(O)c1O` [3I6MC, 3-isopropyl-6-methyl catechol], the “inhibition of odorant activation” value at Dmel\Or35a + Dmel\Orco and at Agam\Or39 + Agam\Orco was “could inhibit odorant activation” in each case. Also, on Dmel\Or35a + Dmel\Orco, the “antagonism of OLC12 (Orco agonist) activation of heteromeric OR” value (“antagonism of OLC12” for short) is reported as “could antagonize OLC12”.

With `Cc1cccc(C(C)(C)C)c1O` [BMP, 2-tert-butyl-6-methylphenol], on Dmel\Or35a + Dmel\Orco, the “inhibition of odorant activation” value is given as “able to inhibit odorant activation” and the “antagonism of OLC12” value is given as “able to antagonize OLC12”. Moreover, the “inhibition of odorant activation” value on Agam\Or39 + Agam\Orco is “able to inhibit odorant activation”.

On to `C=CC(C)(CCC=C(C)C)OC=O` (stereo not drawn) [LF, linalyl formate], for which, on Dmel\Or35a + Dmel\Orco, the “inhibition of odorant activation” value is reported as “able to inhibit odorant activation” and the “antagonism of OLC12” value is “able to antagonize OLC12”. Also, on Agam\Or39 + Agam\Orco, the “inhibition of odorant activation” value is recorded as “able to inhibit odorant activation”.

(Values after PMC6411751, “Use of machine learning to identify novel, behaviorally active antagonists of the insect odorant receptor co-receptor (Orco) subunit” (Scientific Reports, 2019).)
